Test results as given in patent US6399083B1, “Cosmetic compositions containing chick pea extract and retinoids” (Unilever Home & Personal Care USA, division of Conopco, Inc., priority 1999, dated 2002).

Tested on: CRABP-2
Assay: CRABP-2 protein expression in fibroblasts by Western immuno-blotting and densitometric scanning
Format: cell-based, Human
Conditions: for As % of control: control as 100%
Method: Dried chick pea was purchased from local markets and powdered in a dry grinder. The alcoholic extract of chick pea was prepared by stirring 1 gram of the dry chick pea powder in 10 ml of ethanol for 4 to 24 hrs at room temperature. The extract was clarified by filtration and centrifugation, to obtain a 10% extract of chick pea in ethanol.
Human adult fibroblasts obtained from sun-protected inner arm of […] were used in this. Cells were grown in 1:1 DMEM/Hams F12 media containing 10% FBS, maintained at 37 C. in a 5% CO2 atmosphere under normal atmospheric oxygen tension. Third passage adult fibroblasts were grown in DMEM media with 10% FBS in 12-well plates at a seeding density of 40,000 cells/ml/well. The cells at 80% confluence were rinsed in serum free and phenol red free (PRF) DMEM media twice. Pre-treatment with chick pea extract for 4 hours was conducted and then dosed with retinoids and was incubated for 48 hours. After the incubation, the wells were washed twice with 1×PBS and the cell monolayer was harvested in 100 μI cell lysis buffer (contains 1×PBS, 1% TritonX, 0.5% sodium deoxycholate, 0.1% SDS containing protease inhibitor (10 mg/ml PMSF in isopropanol, 10 μl/ml)). The suspension was spun at 14000 rpm for 10 minutes, the supernatant collected and an aliquot of this supernatant was used for protein quantification. Protein concentration was determined using Pierce protein kit. The remainder of 100 μl supernatant (cell lysate) was denatured in a mixture of 40 μl sample buffer (NOVEX) and 0.5% Beta mercaptoethanol (BME) and by boiling the sample for 5 minutes. Equal amount of protein was then loaded onto 16% Tris-glycine gels for protein analysis by SDS page and Western Immuno-blotting for CRABP-2 protein expression.
To measure the levels of CRABP-2 in the fibroblasts prepared as described above, the cell supernatant was re-suspended in 4×sample buffer and 0.5% BME, boiled for 5 minutes and used for western blotting. Equal amounts of protein were loaded onto 16% Tris-glycine gels for CRABP-2 protein analysis by SDS page and Western Immuno-blotting. The gels were transferred to nitrocellulose blots and Western Blotting was carried out using monoclonal antibodies to CRABP-2 according to standard procedures. The CRABP-2 protein band was visualized in the Western Blots using the chemiluminescence system obtained from Santa Cruz Biotechnology (Santa Cruz, Calif.). The bands in the film were quantitated by densitometric scanning, the data from triplicate samples were calculated as % of control and expressed in the following tables as % increase over control (with control as 100%) +/−SD of triplicates.

[1] = Example 1: 100 nM retinoids and 0.1 μl of a 10% chick pea extract, 4 h extract pre-treatment, 48 h incubation, +/- SD of triplicates
[2] = Example 1: 100 nM retinoids and 0.1 μl of a 10% chick pea extract, +/- SD of triplicates
[3] = Example 1: 100 nM retinoids and 0.1 μl of a 10% chick pea extract
[4] = Example 3: 500 nM retinoids and 0.1 μl of a 10% chick pea extract, +/- SD of triplicates
[5] = Example 3: 500 nM retinoids and 0.1 μl of a 10% chick pea extract
[6] = second table headed Example 3: 500 nM retinoids and 0.1 μl of a 10% chick pea extract, +/- SD of triplicates
[7] = second table headed Example 3: 500 nM retinoids and 0.1 μl of a 10% chick pea extract

Structure (SMILES) | CRABP-2 levels [1] | CRABP-2 levels [2] | As % of control [3] | As % of control [2] | CRABP-2 levels [4] | As % of control [5] | CRABP-2 levels [6] | As % of control [7]
CCCCC/C=C\C/C=C\CCCCCCCC(=O)OC/C=C(C)/C=C/C=C(C)/C=C/C1=C(C)CCCC1(C)C [Retinyl linoleate, retinyl linoleate] | 2.06 +/− 0.09 | 2.06 +/− 0.09 | 294 +/− 12 % of control | 294 +/− 12 % of control | 0.81 +/− 0.16 | 115 +/− 23 % of control | 0.81 +/− 0.16 | 115 +/− 23 % of control
CCCCCCCCCCCCCCCC(=O)OC/C=C(C)/C=C/C=C(C)/C=C/C1=C(C)CCCC1(C)C [Retinyl Palmitate, retinyl palmitate] | 1.84 +/− 0.16 | 1.84 +/− 0.16 | 262 +/− 24 % of control | 262 +/− 24 % of control | 0.94 +/− 0.31 | 135 +/− 45 % of control | 0.94 +/− 0.31 | 135 +/− 45 % of control
CC(=O)OC/C=C(C)/C=C/C=C(C)/C=C/C1=C(C)CCCC1(C)C [Retinyl acetate, retinyl acetate] | 1.44 +/− 0.26 | 1.44 +/− 0.26 | 206 +/− 37 % of control | 206 +/− 37 % of control | 1.65 +/− 0.49 | 235 +/− 70 % of control | 1.65 +/− 0.49 | 235 +/− 70 % of control
CC1=C(/C=C/C(C)=C/C=C/C(C)=C/CO)C(C)(C)CCC1 [Retinol] | 2.02 +/− 0.23 | 2.02 +/− 0.23 | 289 +/− 34 % of control | 289 +/− 34 % of control | 0.72 +/− 0.04 | 102 +/− 6 % of control | 0.72 +/− 0.04 | 102 +/− 6 % of control
